Measurements taken from patent publication US8653271B2 (priority 2006, dated 2014).

How the values were obtained:
[1] = Stratum corneum/vehicle partition coefficient studies; assay type: in vitro ADME, human; details: mineral oil vehicle, 32° C., 48 h; no units
Method: Human epidermis with stratum corneum (SC) side facing up was incubated on filter paper soaked with 0.1% trypsin in 0.5% sodium bicarbonate solution at 37° C. for 3 h. The SC membrane was separated and dried in a vacuum dessicator. After 24 h, the SC was dipped in acetone for 20 s to remove sebaceous lipids and dried again.
Approximately 5 mg of SC was equilibrated with sub-saturated drug solutions in 0.5 g of mineral oil solution at 32° C. for 48 h. Two different levels of sub-saturated drug solutions, 10 and 20 nmol in 0.5 g of mineral oil, were used in SC/vehicle partition coefficient studies. However, irrespective of the drug concentrations used, the ratio derived should always be the same since the partition coefficient measurement is an equilibrium phenomenon. An aliquot of the mineral oil solution (10 μl) was withdrawn at the end of the study and was diluted to 1000 μl with acetonitrile. The samples were then analyzed by HPLC. The amount of the drug partitioned into the SC was measured by subtracting the amount present in the mineral oil after equilibration from the initial drug concentration in the mineral oil. The partition coefficient ratio was expressed as the concentration of the drug in 1 g of SC divided by the concentration of the drug in 1 g of mineral oil.

[2] = Differential scanning calorimetry; assay type: physicochemical; details: for Mean activity of solid @ T = 25° C., a2: calculated from melting point and heat of fusion; for Heat of fusion, ΔHf: ±s.d., n = 3
[3] = Predicting plasma concentrations from in vitro permeation studies; details: for plasma level predicted with 5.6-fold guinea pig/human skin factor: 6-β-naltrexol equivalents; for Predicted CSS of 6-β-naltrexol: Predicted from in vitro human skin diffusion data
Description: To predict the plasma concentration of 6-β-naltrexol after application of the gel formulation containing either the codrug or the control formulation, the following equation was used: […]
where CSS is the predicted steady state plasma concentration (ng/ml); JSS is the steady-state flux from in vitro permeation in Table 4 from previous studies; A is the area of the skin in contact with the formulation (14.5 cm^2); Cl is the total body clearance. […] Guinea pig skin is often more permeable than human skin, especially when the stratum corneum is the major rate-limiting step in the absorption process.

[4] = test system: electrically-stimulated guinea pig ileum; details: in vitro; cited from earlier work
[5] = humans, systemic circulation after oral dose of NTX; cited from earlier work
[6] = previous experiments; cited from earlier work
[7] = mice, versus naloxone and naltrexone; cited from earlier work
[8] = Table 4; values obtained from Kiptoo et al.; cited from earlier work
[9] = human skin, values obtained from Kiptoo et al., cited from earlier work; for In vitro flux: codrug as NTXOL equivalent flux
[10] = assay type: physicochemical; details: isotonic phosphate buffer pH 7.4, 32° C.
Method: Equal amounts of the each of the codrug were distributed into labeled test-tubes (20 nmol in each tube). Care was taken to ensure that the entire codrug was dissolved and the solution remained clear. Hydrolysis of the carbonate codrug (˜20 nmol) was conducted in isotonic phosphate buffer pH 7.4 at 32° C. in a water-bath with continuous stirring. […] Samples were collected at predetermined time intervals and stored in the freezer at −20° C. until analyzed. All experiments were conducted in triplicate. An aliquot part (250 μL) of hydrolysis solutions was mixed with 750 μL of acetonitrile, vortexed for 30s, and analyzed by HPLC for the presence of codrug and the two corresponding parent drugs, as well as for the intermediate hydrolysis product, 23. […] A Brownlee C18 reversed-phase Spheri-5 μm column (220×4.6 mm) connected to a C18 reversed-phase guard column (15×3.2 mm) was utilized and detection of solutes was carried out at 215 nm. The mobile phase consisted of a mixture of acetonitrile: 0.1% trifluoroacetic acid adjusted to pH 3.0 with triethylamine (50:50, v/v). The mobile phase flow rate was 1.5 mL/min and 100 μL of hydrolysis sample was injected onto the column.

| SMILES | SC/Vehicle partition coefficient, PC [1] | Mean activity of solid @ T = 25° C., a2 [2] | Heat of fusion, ΔHf [2] [kcal/mol] | plasma level predicted with 5.6-fold guinea pig/human skin factor [3] [ng/mL] | Predicted CSS of 6-β-naltrexol [3] [ng/mL] | Predicted CSS of 6-β-naltrexol ([3]; listed as NTXOL) [ng/mL] | potency relative to naloxone [4] [fold] | potency relative to naltrexone [4] [fold] | half-life [5] | flux and other in vitro permeation parameters, guinea pig skin relative to human skin [6] [fold] | in vivo potency of an acute dose [7] | Light mineral oil solubility [8] [µM] | In vitro flux [9] [nmol cm^−2 h^−1] | In vitro lag time [9] [h] | first-order rate constant k2 ([10]; generation of BUPOH via intermediate from codrug 26) [h⁻¹] | first-order rate constant k1 ([10]; hydrolysis at carbonate linker generating NTX (25) or NTXOL (26)) [h⁻¹] | Predicted CSS of 6-β-naltrexol ([3]; listed as CB-NTXOL-BUPOH) [ng/mL] |
| --- | --- | --- | --- | --- | --- | --- | --- | --- | --- | --- | --- | --- | --- | --- | --- | --- | --- |
| Oc1ccc2c3c1O[C@H]1[C@H](O)CC[C@@]4(O)[C@@H](C2)N(CC2CC2)CC[C@]314 [Compound 2, 6-β-naltrexol] | 73.91 | 0.12 | 3.597 ± 0.0478 | 1.1 | 0.2 ± 0.1 | 0.2 ± 0.1 | 4.5 | 2.8 | about 12 h | 5.6 | less than the other two antagonists | 30 ± 10 | 0.36 ± 0.15 | 15.72 ± 1.76 |  |  |  |
| Cc1c(-c2cccc(Cl)c2)oc(=O)n1C(C)(C)COC(=O)Oc1ccc2c3c1OC1C(O)CCC4(O)C(C2)N(CC2CC2)CCC314 (stereo not drawn) [Compound 26] | 200.61 | 0.20 | 3.031 ± 0.019 | 3.9 |  |  |  |  |  |  |  | 2880 ± 90 | 1.34 ± 0.35 | 12.10 ± 0.77 | 0.0139 ± 0.0006 | 0.0240 ± 0.0007 | 0.7 ± 0.3 |
